Data from patent publication US7338932B2, “Methods of modulating functions of polypeptide GalNAc-transferases and of screening test substances to find agents herefor, pharmaceutical compositions comprising such agents and the use of such agents for preparing medicaments” (Glycozym APS, priority 2000, dated 2008).
“Also recorded” adds a separate entry of the source. Values belong to the compound of their own block, whether it stands above or below them.

How the values were obtained:
GalNAc-T4 [1] = biological target: T1, GalNAc-T4 (Homo sapiens, UniProt Q8N4A0); experiment: Inhibition of glycosylation dependent (GalNAc-glycopeptide) activity of GalNAc-T4, MALDI-TOF time-course; type: biochemical; conditions: […] free sugar
T1 construct: using the GalNAc-T4-sol construct that encodes residues 32-578 inserted into pT7T3U19; made in house; host or cells: High Five insect cells (baculovirus, pAcGP67)
T1 sequence (Q8N4A0 32-578): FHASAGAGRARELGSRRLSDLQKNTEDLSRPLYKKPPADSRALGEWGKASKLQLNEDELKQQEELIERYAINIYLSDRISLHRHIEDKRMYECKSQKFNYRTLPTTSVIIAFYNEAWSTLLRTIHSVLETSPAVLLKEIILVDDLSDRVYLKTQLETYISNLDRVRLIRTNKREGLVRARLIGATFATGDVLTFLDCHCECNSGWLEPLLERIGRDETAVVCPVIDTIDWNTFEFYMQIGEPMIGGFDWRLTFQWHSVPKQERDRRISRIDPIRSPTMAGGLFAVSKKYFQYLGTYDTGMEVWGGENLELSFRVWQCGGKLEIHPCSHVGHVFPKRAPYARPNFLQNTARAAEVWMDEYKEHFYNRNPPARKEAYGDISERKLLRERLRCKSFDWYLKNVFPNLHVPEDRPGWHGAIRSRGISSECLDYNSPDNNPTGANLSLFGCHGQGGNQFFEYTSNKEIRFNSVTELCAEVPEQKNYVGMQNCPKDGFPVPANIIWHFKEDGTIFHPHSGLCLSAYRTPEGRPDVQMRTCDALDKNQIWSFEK
Description: (§1) MALDI-TOF time-course in terminal reactions were performed in reactions of 25 μl containing 2.5 nmol acceptor (glyco)peptide, 40 nmol UDP-GalNAc, and 0.4 μg GalNAc-T4. Sampling of reactions (1 μl) were purified by nano-scale reversed-phase chromatography (Poros R3, PerSeptive Biosystem) and applied directly to the probe with matrix (41). The amount of GalNAc-transferase added was adjusted so that the reaction with the appropriate peptide was near completion in six hours. Reactions were incubated at 37° C. in a shaker bath. At times 0, 2 hours, and 16 hours a 1 μl aliquot was taken and purified. Mass spectra were acquired on either Voyager-DE mass spectrometer equipped with delayed extraction (Perseptive Biosystem Inc.). The matrix used was 2,5-dihydroxybenzoic acid (10 mg/ml, Hewlett-Packard) dissolved in a 2:1 mixture of 0.1% trifluoroacetic acid in 30% aqueous acetonitrile (Rathburn Ltd.).
Quantification of purified proteins was done by Coomassie stained SDS-PAGE and titration of immunoreactivity with the monoclonal antibody, UH6(4G2) (8). […] Wild-type GalNAc-T4 and mutant GalNAc-T4, GalNAc-T4^459H, were analysed with unglycosylated peptides (represented by PSGL-1) or GalNAc glycosylated glycopeptides (represented by GalNAc3TAP25V21) in reactions of 25 μl containing 2.5 nmol acceptor (glyco)peptide, 40 nmol UDP-GalNAc, and 0.4 μg GalNAc-T4. Time-course assays were motioned by MALDI-TOF. Sampling of reactions (1 μl) were purified by nano-scale reversed-phase chromatography (Poros R3, PerSeptive Biosystem) and applied directly to the probe with matrix. Evaluation of inhibition of the glycopeptide specificity of wild-type GalNAc-T4 with free sugars was performed to establish if the lectin domain recognized carbohydrate. […] Further, analysis was performed with 10 mM α-D-GalNAc-1-benzyl, αGlcNAc-benzyl, and fully occupied GalNAc-glycopeptide, GalNAc6TAP25, at 5 mM.

GalNAc-T3 = biological target: T2, GalNAc-T3 (Homo sapiens, UniProt Q14435); experiment: GalNAc-T3 transferase activities with UDP-GalNAc or UDP-Gal donor (EA2 acceptor, peptide panel); type: biochemical; conditions: UDP-Gal donor; printed Muc2 substrate
T2 construct: Soluble, secreted expression constructs of human GalNAc-transferases GalNAc-T1, -T2, -T3, -T4, -T6, -T7, and -T11; made in house; host or cells: insect cells (baculovirus)
T2 sequence (Q14435 38-633 limits assumed): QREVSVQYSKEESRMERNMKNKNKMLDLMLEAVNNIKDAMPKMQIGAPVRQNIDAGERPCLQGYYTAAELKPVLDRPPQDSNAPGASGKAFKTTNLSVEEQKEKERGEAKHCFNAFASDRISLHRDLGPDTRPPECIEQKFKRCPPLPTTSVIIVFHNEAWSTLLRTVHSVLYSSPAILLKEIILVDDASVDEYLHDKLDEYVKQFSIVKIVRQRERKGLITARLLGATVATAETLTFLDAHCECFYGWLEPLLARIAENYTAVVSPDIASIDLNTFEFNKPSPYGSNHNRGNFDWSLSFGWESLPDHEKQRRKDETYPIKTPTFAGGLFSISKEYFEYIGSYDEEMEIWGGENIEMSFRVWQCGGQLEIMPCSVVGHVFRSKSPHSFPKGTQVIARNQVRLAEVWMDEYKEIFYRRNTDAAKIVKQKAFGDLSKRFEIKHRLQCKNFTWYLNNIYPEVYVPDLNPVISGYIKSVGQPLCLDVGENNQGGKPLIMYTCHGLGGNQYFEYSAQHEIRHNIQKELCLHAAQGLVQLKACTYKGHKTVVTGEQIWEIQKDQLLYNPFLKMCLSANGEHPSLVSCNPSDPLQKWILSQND
Description: (§2) Standard reaction mixtures (50 μl final volume) contained 25 mM cocadylate (pH 7.4), 10 mM MnCl2, 0.25% Triton X-100, 200 μM UDP-[^14C]-GalNAc (2,000 cpm/nmol) (Amersham), 200-500 μM acceptor peptides. Products were quantified by scintillation counting after chromatography on Dowex-1, octadecyl silica cartridges (Bakerbond), or HPLC (PC3.2/3 or mRPC C2/C18 SC2.1/10 Pharmacia, Smart System). […] Glycopeptides were purified on Supelclean LC-18 columns (1 ml, Supelco), and the number of GalNAc residues incorporated evaluated by MALDI-TOF mass spectrometry. The enzyme sources used were semipurified as previously described by successive sequential ion-exchange chromatographies on Amberlite (IRA95, Sigma) or DEAE Sephacel (Pharmacia), S-Sepharose Fast Flow (Pharmacia), and Mini-S™ (PC 3.2/3, Pharmacia) using the Smart System (Pharmacia) (28). Secreted GalNAc-T4 was obtained from a stably transfected CHO line (CHO/GalNA-T4/21A) (8) grown in roller bottles in HAMS F12 supplemented with 10% Fetal Bovine Serum. The experiments illustrated in FIG. 1 was performed with recombinant secreted GalNAc-T4 obtained from a stably transfected CHO line (8). Experiments illustrated in FIGS. 2 and 3 were performed with secreted GalNAc-T4 expressed in High Five cells grown in serum-free medium (8). Structural analysis of glycopeptides were performed by a combination of PFPA (pentafluoropropionic acid) hydrolysis and MALDI-TOF mass spectrometry as previously described (40). Secreted GalNAc-T7 was obtained from infected High Five™ cells grown in serum-free medium (Invitrogen) in upright roller bottles shaken 140 rpm in waterbaths at 27° C. GalNAc-T7 was not purified by Mini-S as the yields from cationic chromatography were low due to its low pI (6.4).
(§3) Galactosyl transferring activities of GalNAc-T1, -T2, and -T3, were assayed with a panel of acceptor peptides in standard reaction mixtures containing 100 μM UDP-Gal instead of UDP-GalNAc. […] Further, analysis was performed with 10 mM α-D-GalNAc-1-benzyl, αGlcNAc-benzyl, and fully occupied GalNAc-glycopeptide, GalNAC6TAP25, at 5 mM.

GalNAc-T4 [2] = experiment: Glycosylation independent activity of GalNAc-T4 with naked peptides, MALDI-TOF; type: biochemical, human; conditions: GalNAc-T4 459D or 459H
Description: as §1
Quantification of purified proteins was done by Coomassie stained SDS-PAGE and titration of immunoreactivity with the monoclonal antibody, UH6(4G2) (8). […] Wild-type GalNAc-T4 and mutant GalNAc-T4, GalNAc-T4^459H, were analysed with unglycosylated peptides (represented by PSGL-1) or GalNAc glycosylated glycopeptides (represented by GalNAc3TAP25V21) in reactions of 25 μl containing 2.5 nmol acceptor (glyco)peptide, 40 nmol UDP-GalNAc, and 0.4 μg GalNAc-T4. […]

GalNAc-T2 = biological target: T3, GalNAc-T2 (Homo sapiens, UniProt Q10471); experiment: GalNAc-T2 transferase activities with UDP-GalNAc or UDP-Gal donor (Muc2 acceptor, peptide panel); type: biochemical; conditions: UDP-Gal donor; Muc2 substrate
T3 construct: Soluble, secreted expression constructs of human GalNAc-transferases GalNAc-T1, -T2, -T3, -T4, -T6, -T7, and -T11; made in house; host or cells: insect cells (baculovirus)
T3 sequence (Q10471 52-571 limits assumed): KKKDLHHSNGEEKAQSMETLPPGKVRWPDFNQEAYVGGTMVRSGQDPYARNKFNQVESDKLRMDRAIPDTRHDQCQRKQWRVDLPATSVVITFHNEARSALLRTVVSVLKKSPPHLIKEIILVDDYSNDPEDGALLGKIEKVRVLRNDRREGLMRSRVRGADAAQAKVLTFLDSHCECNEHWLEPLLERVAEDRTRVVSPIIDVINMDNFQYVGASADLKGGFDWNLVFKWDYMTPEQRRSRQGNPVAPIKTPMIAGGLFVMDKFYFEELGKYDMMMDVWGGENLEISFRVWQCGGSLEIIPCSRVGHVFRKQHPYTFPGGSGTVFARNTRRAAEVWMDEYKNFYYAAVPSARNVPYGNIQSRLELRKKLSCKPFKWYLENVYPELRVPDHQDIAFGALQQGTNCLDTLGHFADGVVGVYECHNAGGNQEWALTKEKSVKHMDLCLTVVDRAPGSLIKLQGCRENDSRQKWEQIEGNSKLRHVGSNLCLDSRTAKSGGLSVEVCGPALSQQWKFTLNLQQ
Description: as §2, §3

[3] = system: wild type CHO/MUC1sol-cloneC4; experiment: Secretion of MUC1, western blot of medium; type: cell-based, Chinese Hamster; conditions: 1-2 mM; compared to control treated or non-treated cells
Description: In order to characterize the secreted MUC1 product SDS-PAGE western blot analysis of harvested culture medium of confluent cultures were performed. Ten to twenty μL culture supernatant was analysed directly or treated with 0.1 U/mL neuraminidase (C. Perfringes VI, Sigma) for 30-60 min at 37° C. Samples were mixed with SDS sample buffer, reduced with DTT, and run on precast 4-20% gels (Biorad). As shown in FIG. 9 anti-MUC1 antibodies detected two forms of MUC1 in the medium; a low molecular weight form migrating as 130-140 kd corresponding to unglycosylated product, and a high molecular weight form migrating above 250 kd. The high molecular weight form was sensitive to neuraminidase treatment as evidenced by a marked shift and retardation in migration. […]
Because GalNAcα-benzyl exerts separate effects on O-glycan processing and mucin expression, the use of the novel selective inhibitor of mucin expression, GalNAcβ-benzyl, allow analysis of mucin expression and secretion in different cell line models. […] Most human adenocarcinoma cell lines express and secret mucins and analysis with antibodies to detect protein expression or probes to detect mRNA can reveal the types and quantities of mucins. […] The inhibitory effect on mucin secretion can be quantified by a number of assays known to the skilled in the art including western blot, ELISA, gelfiltration, immunocapture, and other assays.

[4] = system: CHOldlD/MUC1F-clone2 cells; experiment: MUC1 expression in cell lysates, immunoprecipitation and SDS-PAGE western blot; type: cell-based, Chinese Hamster; conditions: 2 mM, 36 hours
Description: We next analysed the expression of MUC1 produced by CHOldlD/MUC1F-clone2 cells by SDS-PAGE western analysis. […] Cells were further treated with 2 mM GalNAcα-benzyl, GlcNAcα-benzyl or no inhibitor. Cells were washed and lysed at 24 or 48 hours and the lysates subjected to immunoprecipitation with monoclonal antibody HMFG2, which broadly recognize MUC1 glycoforms. Immunoprecipitates were analysed by SDS-PAGE and western blot using HMFG2 antibody to detect MUC1 expression. […] In striking contrast, treatment with GalNAcα-benzyl had significant effect after 48 hours. […] This indicates some heterogeneity in glycosylation.
As shown in Examples 8 and 9, polypeptide GalNAc-transferases contain lectin domains with binding properties for GalNAc-peptides including GalNAc-MUC1 peptides. […] GalNAcβ-benzyl, the β-anomeric configuration of GalNAc-benzyl (there is a β linkage between the N-acetylgalactosamine and the benzyl ring), was custom synthesized by Alberta Research Council (Canada), and its structure was confirmed by mass spectrometry and ^1H-NMR. […] Cells were then treated with 2 mM GalNAcα-benzyl, GalNAcβ-benzyl, or GlcNAcα-benzyl as control (GlcNAcα-benzyl was shown in Example 10 to have no effect). Cells were washed and lysed as described above after 36 hours and the lysates subjected to immunoprecipitation with anti-MUC1 monoclonal antibodies HMFG2 or 5E5. […] FIG. 17 illustrates the same experiments as in FIG. 16 except that the detection antibody is 5E5 and only Tn and STn MUC1 glycoforms are visualised.

GalNAc-T7 = biological target: T4, GalNAc-T7 (Homo sapiens, UniProt Q86SF2); experiment: Inhibition of GalNAc-T7 activity with GalNAc2-3EA2 substrate; type: biochemical; conditions: 5 mM
T4 construct: made in house; host or cells: High Five insect cells (baculovirus)
T4 sequence (Q86SF2 30-657 limits assumed): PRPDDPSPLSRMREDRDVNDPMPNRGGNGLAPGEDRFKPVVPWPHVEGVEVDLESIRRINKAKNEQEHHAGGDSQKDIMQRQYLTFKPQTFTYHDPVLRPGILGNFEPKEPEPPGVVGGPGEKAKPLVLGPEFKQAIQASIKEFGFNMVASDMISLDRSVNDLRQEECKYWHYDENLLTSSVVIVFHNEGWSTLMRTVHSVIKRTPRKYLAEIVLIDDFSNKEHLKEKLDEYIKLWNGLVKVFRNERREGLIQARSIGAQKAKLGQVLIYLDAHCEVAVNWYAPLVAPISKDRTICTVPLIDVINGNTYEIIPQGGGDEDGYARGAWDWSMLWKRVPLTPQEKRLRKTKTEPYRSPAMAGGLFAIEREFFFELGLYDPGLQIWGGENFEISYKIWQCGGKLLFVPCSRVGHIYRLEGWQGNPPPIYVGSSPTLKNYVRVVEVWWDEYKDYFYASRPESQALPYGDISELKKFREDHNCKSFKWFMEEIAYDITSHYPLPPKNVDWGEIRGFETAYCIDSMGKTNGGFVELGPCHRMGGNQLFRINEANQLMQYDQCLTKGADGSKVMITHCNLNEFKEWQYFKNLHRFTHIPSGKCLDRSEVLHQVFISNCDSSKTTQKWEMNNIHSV
Description: as §2
GalNAc-T7 activity was analysed with GalNAc glycosylated glycopeptides (represented by GalNAc2-3EA2 (7)) in reactions of 25 μl containing 2.5 nmol acceptor (glyco)peptide, 40 nmol UDP-GalNAc, and purified GalNAc-T7. […]

Inhibition of glycosylation dependent specificity of GalNAc-T4 (GalNAc-T4 [1]): almost completely inhibited
Inhibition of galactosyltransferase activity of GalNAc-T3 (GalNAc-T3): selectively inhibited
Inhibition of galactosyltransferase activity of GalNAc-T2 (GalNAc-T2): selectively inhibited
Structure (SMILES): CC(=O)N[C@H]1C(O)O[C@H](CO)[C@H](O)[C@@H]1O (stereo partly shown) [GalNAc, N-acetylgalactosamine]
Effect on glycosylation independent activities of GalNAc-T4 (GalNAc-T4 [2]): no effect

Structure (SMILES): CC(=O)N[C@H]1[C@H](OCc2ccccc2)O[C@H](CO)[C@H](O)[C@@H]1O [GalNAcβ-benzyl, benzyl-2-acetamido-2-deoxy-β-D-galactopyranoside galactosamine]
Secreted MUC1 in medium [3]: inhibition of secreted MUC1
MUC1 expression ([4]; blot 5E5, cells grown in GalNAc): strong inhibition; also recorded: same or better reduction in MUC1 expression
MUC1 expression ([4]; blot HMFG2, grown in GalNAc or Gal and GalNAc): same or better reduction in MUC1 expression
SDS-PAGE migration of MUC1 (O-glycosylation) ([4]; cells grown in Gal and GalNAc): no change in the migration of MUC1

Inhibition of GalNAc-T7 activity with GalNAc2-3EA2 (GalNAc-T7): significantly inhibited
Structure (SMILES): CC(=O)N[C@H]1[C@@H](OCc2ccccc2)O[C@H](CO)[C@H](O)[C@@H]1O[C@@H]1O[C@H](CO)[C@H](O)[C@H](O)[C@H]1O [Galβ1-3GalNAcα1-bz]

Inhibition of GalNAc-T7 activity with GalNAc2-3EA2 (GalNAc-T7): significantly inhibited
Structure (SMILES): OC[C@H]1O[C@@H](OCc2ccccc2)[C@H](O)[C@@H](O)[C@H]1O [bz-βGal]
